Patent publication US20260137788A1, “INFLAMMATION STIMULI RESPONSIVE PEPTIDE BRUSH POLYMERS” (NORTHWESTERN UNIVERSITY, priority 2021, published 2026)
Ends that are not written are not given here.

How the values were obtained:
[1] = Diffusion Ordered Spectroscopy (DOSY) NMR diffusion rate; assay type: physicochemical; settings: in deuterated water
Experimental: ^1H Nuclear Magnetic Resonance (^1H NMR): ^1H NMR data was recorded on either a Bruker Avance III HD 500 MHz spectrometer, a Bruker Avance III 600 MHz spectrometer, or a Bruker Neo 600 MHz spectrometer. The 500 MHz spectrometer was primarily used for small molecule characterization, the Bruker Avance III 600 MHz spectrometer was used for polymerization kinetics studies, and the Bruker Neo 600 MHz spectrometer was used for diffusion ordered spectroscopy (DOSY) studies done on PLPs in deuterated buffered saline. ^1H NMR chemical shifts are given in reference to residual proton peaks from either the DMSO-d6 or the DMF-d7 solvent.
(§1) Characterization Results: The molar mass of both unlabeled and labeled AAK20 PLPs were analyzed by SDS PAGE using a polyacrylamide gel with a pore gradient of 4-15% (cat #: 4561083) and Precision Plus Kaleidoscope Protein Standard (cat #: 1610395). The mass of both AAK20 and Cy5.5-AAK20 samples were ˜20 kDa and found to correspond with the average molecular weight of an AAK PLP with a DP of 20 (FIG. 9A). […] The diffusion rate of AAK20 in deuterated water was analyzed by Diffusion Ordered Spectroscopy (DOSY) NMR. […] Additional physical characterization of AAK20 by dry state Transmission Electron Microscopy (TEM) was performed to provide complementary data to SDS PAGE, DLS, and DOSY NMR.

[2] = Dynamic Light Scattering (DLS) average diameter; assay type: physicochemical; settings: in PBS
Experimental: as §1

[3] = Dry state Transmission Electron Microscopy (TEM); assay type: physicochemical
Experimental: as §1

[4] = tested on: Sprague Dawley rats, IR MI; assay: Efficacy on LV function by MRI; assay type: in vivo, rat; settings: tail-vein injection 1-day post-MI, MRI 3 days and 5 weeks post-injection
Experimental: Methods 5.1: Assessing Efficacy of L-PLPMMPi on LV Function. Male and female Sprague Dawley rats undergo IR procedures as previously described in Example 2. Prior to surgery, all animals undergo magnetic resonance imaging (MRI) to establish a baseline for LV ejection fraction (EF), wall thickness, end diastolic volume (EDV), and end systolic volume (ESV). […] MRI is performed at 3 days and 5 weeks (n=7 per sex for saline, MMPi, L-PLP, and L-PLPMMPi treated animals with randomized groups for each harvest timepoint) post-injection to assess cardiac function via LV EF, wall thickness, EDV, and ESV. For power analysis, an a value of 0.05 and a power of 0.8 was used to determine experimental sample sizes with additional rats based on an expected 30% mortality from surgical procedures. A 2-way ANOVA with post-hoc Tukey Test is then performed with significance at α=0.05.

Compound | diffusion rate by DOSY NMR [1] | average diameter by DLS [2] | morphology by dry state TEM [3] | LV ejection fraction (EF), pre- vs post-MI (MRI) [4] | end diastolic volume (EDV), pre- vs post-MI (MRI) [4] | end systolic volume (ESV), pre- vs post-MI (MRI) [4] | wall thickness, pre- vs post-MI (MRI) [4]
AAK20: PLP made by ROMP of norbornene AAK monomer (SEQ ID NO: 142, AAKAAKAA) at 20 molar equivalence to Grubbs catalyst; unlabeled (AAKAAKAA-NH2; also: norbornene monomer polymerized by ROMP into PLP) | approximately 1×10^−6 cm^2/s | < 10 nm | nanoscale globular assemblies |  |  |  | 
CC(C)[C@H](NS(=O)(=O)c1ccc(-c2ccc(Br)cc2)cc1)C(=O)O [MMPi, PD166793] |  |  |  | decreased | increased | increased | negligible differences
